Results published in PubChem BioAssay (NCI).
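The compound was tested at five concentrations on cells cultured in 96-well plates, with a 48-hour exposure period. GI50 = concentration required for 50% inhibition of growth. Definition used: TGI = concentration required for complete inhibition of growth.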

Tests used:
Assay in all cases: growth of human tumour cells (NCI), 48 h
IGROV1 ovarian = system: IGROV1 ovarian
U251 CNS = system: U251 CNS
A549 NSCLC = system: A549 NSCLC
HT29 colon = system: HT29 colon
NCI-H226 lung = system: NCI-H226 lung
MALME-3M melanoma = system: MALME-3M melanoma
T-47D breast = system: T-47D breast
UACC-62 melanoma = system: UACC-62 melanoma
PC-3 prostate = system: PC-3 prostate
OVCAR-8 ovarian = system: OVCAR-8 ovarian
MOLT-4 leukemia = system: MOLT-4 leukemia
NCI-H460 lung = system: NCI-H460 lung
SK-MEL-2 melanoma = system: SK-MEL-2 melanoma
MDA-MB-435 = system: MDA-MB-435
TK-10 renal = system: TK-10 renal
MCF7 breast = system: MCF7 breast
M14 melanoma = system: M14 melanoma
786-0 renal = system: 786-0 renal
CCRF-CEM leukemia = system: CCRF-CEM leukemia
RPMI-8226 leukemia = system: RPMI-8226 leukemia
SK-MEL-28 melanoma = system: SK-MEL-28 melanoma
UO-31 renal = system: UO-31 renal
NCI/ADR-RES ovarian = system: NCI/ADR-RES ovarian
BT-549 breast = system: BT-549 breast
UACC-257 melanoma = system: UACC-257 melanoma
HCT-15 colon = system: HCT-15 colon
SK-MEL-5 melanoma = system: SK-MEL-5 melanoma
HS 578T breast = system: HS 578T breast
OVCAR-3 ovarian = system: OVCAR-3 ovarian
HL-60(TB) leukemia = system: HL-60(TB) leukemia
NCI-H23 lung = system: NCI-H23 lung
ACHN renal = system: ACHN renal
SF-268 CNS = system: SF-268 CNS
K-562 leukemia = system: K-562 leukemia
HOP-92 NSCLC = system: HOP-92 NSCLC
SN12C renal = system: SN12C renal
SW-620 colon = system: SW-620 colon
HOP-62 NSCLC = system: HOP-62 NSCLC
OVCAR-4 ovarian = system: OVCAR-4 ovarian
COLO 205 colon = system: COLO 205 colon
SK-OV-3 ovarian = system: SK-OV-3 ovarian
SNB-19 CNS = system: SNB-19 CNS
HCC-2998 colon = system: HCC-2998 colon
SNB-75 CNS = system: SNB-75 CNS
A498 renal = system: A498 renal
NCI-H522 lung = system: NCI-H522 lung
OVCAR-5 ovarian = system: OVCAR-5 ovarian
LOX IMVI melanoma = system: LOX IMVI melanoma
CAKI-1 renal = system: CAKI-1 renal
SR leukemia = system: SR leukemia
DU-145 prostate = system: DU-145 prostate
KM12 colon = system: KM12 colon
HCT-116 colon = system: HCT-116 colon
EKVX NSCLC = system: EKVX NSCLC
SF-539 CNS = system: SF-539 CNS
SF-295 CNS = system: SF-295 CNS
MDA-MB-231 breast = system: MDA-MB-231 breast

## COc1ccc2sc(NC(=O)CCCCCCNC(=O)C(O)(O)C(F)(F)F)nc2c1
IGROV1 ovarian
  GI50: 1830 nM
  TGI: 7730 nM
U251 CNS
  GI50: 1040 nM
  TGI: 5270 nM
A549 NSCLC
  GI50: 1860 nM
  TGI: 18400 nM
HT29 colon
  GI50: 912 nM
  TGI: > 30300 nM
NCI-H226 lung
  GI50: 4940 nM
  TGI: 22600 nM
MALME-3M melanoma
  GI50: 1040 nM
  TGI: 12000 nM
T-47D breast
  GI50: 879 nM
  TGI: 3020 nM
UACC-62 melanoma
  GI50: 828 nM
  TGI: 3410 nM
PC-3 prostate
  GI50: 1720 nM
  TGI: > 30300 nM
OVCAR-8 ovarian
  GI50: 989 nM
  TGI: 6580 nM
MOLT-4 leukemia
  GI50: 1070 nM
  TGI: > 30300 nM
NCI-H460 lung
  GI50: 877 nM
  TGI: 13500 nM
SK-MEL-2 melanoma
  GI50: 1060 nM
  TGI: 5200 nM
MDA-MB-435
  GI50: 1030 nM
  TGI: 6000 nM
TK-10 renal
  GI50: 736 nM
  TGI: > 30300 nM
MCF7 breast
  GI50: 1750 nM
  TGI: > 30300 nM
M14 melanoma
  GI50: 2070 nM
  TGI: > 30300 nM
786-0 renal
  GI50: 1080 nM
  TGI: > 30300 nM
CCRF-CEM leukemia
  GI50: 1340 nM
  TGI: > 30300 nM
RPMI-8226 leukemia
  GI50: 988 nM
  TGI: > 30300 nM
SK-MEL-28 melanoma
  GI50: 1160 nM
  TGI: 7950 nM
UO-31 renal
  GI50: 1120 nM
  TGI: 5700 nM
NCI/ADR-RES ovarian
  GI50: 2070 nM
  TGI: 18500 nM
BT-549 breast
  GI50: 1500 nM
  TGI: 18900 nM
UACC-257 melanoma
  GI50: 1490 nM
  TGI: 26800 nM
HCT-15 colon
  GI50: 3570 nM
  TGI: 10100 nM
SK-MEL-5 melanoma
  GI50: 1420 nM
  TGI: 4870 nM
HS 578T breast
  GI50: 969 nM
  TGI: 9910 nM
OVCAR-3 ovarian
  GI50: 696 nM
  TGI: 2840 nM
HL-60(TB) leukemia
  GI50: 1060 nM
  TGI: > 30300 nM
NCI-H23 lung
  GI50: 2830 nM
  TGI: 21700 nM
ACHN renal
  GI50: 1180 nM
  TGI: 6580 nM
SF-268 CNS
  GI50: 1480 nM
  TGI: 8210 nM
K-562 leukemia
  GI50: 882 nM
  TGI: > 30300 nM
HOP-92 NSCLC
  GI50: 649 nM
  TGI: 2470 nM
SN12C renal
  GI50: 2310 nM
  TGI: 19000 nM
SW-620 colon
  GI50: 531 nM
  TGI: 1850 nM
HOP-62 NSCLC
  GI50: 1330 nM
  TGI: > 30300 nM
OVCAR-4 ovarian
  GI50: 2800 nM
  TGI: > 30300 nM
COLO 205 colon
  GI50: 920 nM
  TGI: 3650 nM
SK-OV-3 ovarian
  GI50: 860 nM
  TGI: 2310 nM
SNB-19 CNS
  GI50: 2470 nM
  TGI: 14700 nM
HCC-2998 colon
  GI50: 2150 nM
  TGI: 7560 nM
SNB-75 CNS
  GI50: 912 nM
  TGI: > 30300 nM
A498 renal
  GI50: 901 nM
  TGI: 6470 nM
NCI-H522 lung
  GI50: 919 nM
  TGI: 4610 nM
OVCAR-5 ovarian
  GI50: 912 nM
  TGI: 6260 nM
LOX IMVI melanoma
  GI50: 1380 nM
  TGI: 5420 nM
CAKI-1 renal
  GI50: 1830 nM
  TGI: 14700 nM
SR leukemia
  GI50: 738 nM
  TGI: > 30300 nM
DU-145 prostate
  GI50: 1010 nM
  TGI: 14000 nM
KM12 colon
  GI50: 1290 nM
  TGI: 7400 nM
HCT-116 colon
  GI50: 754 nM
  TGI: > 30300 nM
EKVX NSCLC
  GI50: 2330 nM
  TGI: > 30300 nM
SF-539 CNS
  GI50: 2050 nM
  TGI: > 30300 nM
SF-295 CNS
  GI50: 1070 nM
  TGI: 3410 nM
MDA-MB-231 breast
  GI50: 680 nM
  TGI: 2240 nM
